Tests used:
Format in all cases: in vivo
Conditions in all cases: 250 g/ha, evaluated visually after 13 days, scale 0-5
[1] = test system: Abutilon theophrasti (ABUTH); assay: Herbicidal efficacy, application post-emergence; set-up: key: 5 = total damage to plant; 0 = no damage to plant
Description: (§1) Seeds of a variety of test species [Ipomoea hederacea (IPOHE); Zea mays (ZEAMX); Echinochloa crus-galli (ECHCG); Setaria faberi (SETFA); Abutilon theophrasti (ABUTH); Amaranthus retroflexus (AMARE)] were sown in standard sterilised soil in pots. After cultivation for one day (pre-emergence) or after 8 days cultivation (post-emergence) under controlled conditions in a glasshouse (at 24/16° C., day/night; 14 hours light; 65 % humidity), the plants were sprayed with an aqueous spray solution derived from the formulation of the technical active ingredient in acetone / water (50:50) solution containing 0.5% Tween 20 (polyoxyethelyene sorbitan monolaurate, CAS RN 9005-64-5), subsequently diluted in water, and sprayed to give the stated application rate.
(§2) The test plants were then grown under controlled conditions in a glasshouse (at 24/16° C., day/night; 14 hours light; 65 % humidity) and watered twice daily.
(§3) After 13 days for pre- and post-emergence, the test was evaluated visually for percentage phytotoxicity to the plant (where 5 = total damage to plant; 0 = no damage to plant).

Zea mays (ZEAMX) [2] = assay: Herbicidal efficacy, application pre-emergence
Description: as §1, §2, §3

[3] = test system: Amaranthus retroflexus (AMARE); assay: Herbicidal efficacy, application pre-emergence; set-up: key: 5 = total damage to plant; 0 = no damage to plant
Description: as §1, §2, §3

[4] = test system: Ipomoea hederacea (IPOHE); assay: Herbicidal efficacy, application pre-emergence; set-up: key: 5 = total damage to plant; 0 = no damage to plant
Description: as §1, §2, §3

[5] = test system: Abutilon theophrasti (ABUTH); assay: Herbicidal efficacy, application pre-emergence; set-up: key: 5 = total damage to plant; 0 = no damage to plant
Description: as §1, §2, §3

[6] = test system: Echinochloa crus-galli (ECHCG); assay: Herbicidal efficacy, application pre-emergence; set-up: key: 5 = total damage to plant; 0 = no damage to plant
Description: as §1, §2, §3

Setaria faberi (SETFA) [7] = assay: Herbicidal efficacy, application pre-emergence; set-up: key: 5 = total damage to plant; 0 = no damage to plant
Description: as §1, §2, §3

[8] = test system: Amaranthus retroflexus (AMARE); assay: Herbicidal efficacy, application post-emergence
Description: as §1, §2, §3

Zea mays (ZEAMX) [9] = assay: Herbicidal efficacy, application post-emergence
Description: as §1, §2, §3

[10] = test system: Ipomoea hederacea (IPOHE); assay: Herbicidal efficacy, application post-emergence
Description: as §1, §2, §3

[11] = test system: Echinochloa crus-galli (ECHCG); assay: Herbicidal efficacy, application post-emergence
Description: as §1, §2, §3

Setaria faberi (SETFA) [12] = assay: Herbicidal efficacy, application post-emergence
Description: as §1, §2, §3

Compound | phytotoxicity to the plant, ABUTH [1] | phytotoxicity to the plant, ZEAMX (Zea mays (ZEAMX) [2]) | phytotoxicity to the plant, AMARE [3] | phytotoxicity to the plant, IPOHE [4] | phytotoxicity to the plant, ABUTH [5] | phytotoxicity to the plant, ECHCG [6] | phytotoxicity to the plant, SETFA (Setaria faberi (SETFA) [7]) | phytotoxicity to the plant, AMARE [8] | phytotoxicity to the plant, ZEAMX (Zea mays (ZEAMX) [9]) | phytotoxicity to the plant, IPOHE [10] | phytotoxicity to the plant, ECHCG [11] | phytotoxicity to the plant, SETFA (Setaria faberi (SETFA) [12])
Cc1c(Br)c(C2CN(C)C(=O)C2C(=O)Nc2ccc(F)cc2F)nn1C(F)F (stereo not drawn) [Compound 59, 4-[4-bromo-1-(difluoromethyl)-5-methyl-pyrazol-3-yl]-N-(2,4-difluorophenyl)-1-methyl-2-oxo-pyrrolidine-3-carboxamide] | 0 | 1 | 0 | 0 | 1 | 5 | 5 | 1 | 3 | 1 | 4 | 4
CCc1cc(C2CN(C)C(=O)C2C(=O)Nc2cccc(F)c2C)nn1C(F)F (stereo not drawn) [Compound 10, 4-[1-(difluoromethyl)-5-ethyl-pyrazol-3-yl]-N-(3-fluoro-2-methylphenyl)-1-methyl-2-oxo-pyrrolidine-3-carboxamide] | 0 | 4 | 1 | 2 | 2 | 5 | 5 | 1 | 4 | 4 | 4 | 4
CCc1cc(C2CN(C)C(=S)C2C(=O)Nc2ccc(F)nc2F)nn1C(F)F (stereo not drawn) [Compound 86, 4-[1-(difluoromethyl)-5-ethyl-pyrazol-3-yl]-N-(2,6-difluoro-3-pyridyl)-1-methyl-2-thioxo-pyrrolidine-3-carboxamide] | 3 | 1 | 2 | 0 | 1 | 5 | 5 | 1 | 3 | 1 | 4 | 4
Cc1cc(C2CN(C)C(=O)C2C(=O)Nc2ccc(F)nc2F)nn1C(F)F (stereo not drawn) [Compound 81, 4-[1-(difluoromethyl)-5-methyl-pyrazol-3-yl]-N-(2,6-difluoro-3-pyridyl)-1-methyl-2-oxo-pyrrolidine-3-carboxamide] | 0 | 2 | 0 | 2 | 0 | 5 | 5 | 2 | 4 | 1 | 4 | 4
Cc1cc(C2CN(C)C(=O)C2C(=O)Nc2ccc(F)cc2F)nn1C(F)F (stereo not drawn) [Compound 57, 4-[1-(difluoromethyl)-5-methyl-pyrazol-3-yl]-N-(2,4-difluorophenyl)-1-methyl-2-oxo-pyrrolidine-3-carboxamide] | 1 | 2 | 1 | 1 | 1 | 5 | 5 | 1 | 2 | 3 | 4 | 4
Cc1cc(C2CN(C)C(=O)C2C(=O)Nc2cccc(F)c2F)nn1C(F)F (stereo not drawn) [Compound 33, 4-[1-(difluoromethyl)-5-methyl-pyrazol-3-yl]-N-(2,3-difluorophenyl)-1-methyl-2-oxo-pyrrolidine-3-carboxamide] | 1 | 4 | 2 | 1 | 1 | 5 | 5 | 2 | 3 | 4 | 4 | 4
CCc1cc(C2CN(C)C(=S)C2C(=O)Nc2cccc(F)c2F)nn1C(F)F (stereo not drawn) [Compound 38, 4-[1-(difluoromethyl)-5-ethyl-pyrazol-3-yl]-N-(2,3-difluorophenyl)-1-methyl-2-thioxo-pyrrolidine-3-carboxamide] | 0 | 4 | 0 | 2 | 0 | 5 | 5 | 1 | 3 | 4 | 4 | 4
CCc1cc(C2CN(C)C(=O)C2C(=O)Nc2ccc(F)nc2F)nn1C(F)F (stereo not drawn) [Compound 82, 4-[1-(difluoromethyl)-5-ethyl-pyrazol-3-yl]-N-(2,6-difluoro-3-pyridyl)-1-methyl-2-oxo-pyrrolidine-3-carboxamide] | 1 | 3 | 1 | 3 | 1 | 5 | 5 | 1 | 4 | 4 | 4 | 4
CCc1cc(C2CN(C)C(=S)C2C(=O)Nc2ccc(F)cc2F)nn1C(F)F (stereo not drawn) [Compound 62, 4-[1-(difluoromethyl)-5-ethyl-pyrazol-3-yl]-N-(2,4-difluorophenyl)-1-methyl-2-thioxo-pyrrolidine-3-carboxamide] | 1 | 2 | 0 | 0 | 0 | 5 | 5 | 1 | 1 | 1 | 4 | 4

Source: patent publication US20230312478A1, “HERBICIDAL COMPOUNDS” (SYNGENTA CROP PROTECTION AG, priority 2020, published 2023)
